According to ChEMBL document CHEMBL1152388, “Identification of substituted pyrazolo[1,5-a]quinazolin-5(4H)-one as potent poly(ADP-ribose)polymerase-1 (PARP-1) inhibitors” (Bioorg Med Chem Lett, 2009):

What follows are compounds tested on HeLa (assay: Inhibition of PAR polymer formation in H2O2-stimulated human HeLa cells).
Assay type: functional, cell-based

Compound	EC50 [nM]
CN1CCCN(C(=O)c2cc3[nH]c(=O)c4ccccc4n3n2)CC1	3900

These compounds were tested against Poly [ADP-ribose] polymerase 1 (Homo sapiens, UniProt P09874) (assay: Inhibition of PARP1 by scintillation proximity assay).
Poly [ADP-ribose] polymerase 1, sequence (P09874 whole entry): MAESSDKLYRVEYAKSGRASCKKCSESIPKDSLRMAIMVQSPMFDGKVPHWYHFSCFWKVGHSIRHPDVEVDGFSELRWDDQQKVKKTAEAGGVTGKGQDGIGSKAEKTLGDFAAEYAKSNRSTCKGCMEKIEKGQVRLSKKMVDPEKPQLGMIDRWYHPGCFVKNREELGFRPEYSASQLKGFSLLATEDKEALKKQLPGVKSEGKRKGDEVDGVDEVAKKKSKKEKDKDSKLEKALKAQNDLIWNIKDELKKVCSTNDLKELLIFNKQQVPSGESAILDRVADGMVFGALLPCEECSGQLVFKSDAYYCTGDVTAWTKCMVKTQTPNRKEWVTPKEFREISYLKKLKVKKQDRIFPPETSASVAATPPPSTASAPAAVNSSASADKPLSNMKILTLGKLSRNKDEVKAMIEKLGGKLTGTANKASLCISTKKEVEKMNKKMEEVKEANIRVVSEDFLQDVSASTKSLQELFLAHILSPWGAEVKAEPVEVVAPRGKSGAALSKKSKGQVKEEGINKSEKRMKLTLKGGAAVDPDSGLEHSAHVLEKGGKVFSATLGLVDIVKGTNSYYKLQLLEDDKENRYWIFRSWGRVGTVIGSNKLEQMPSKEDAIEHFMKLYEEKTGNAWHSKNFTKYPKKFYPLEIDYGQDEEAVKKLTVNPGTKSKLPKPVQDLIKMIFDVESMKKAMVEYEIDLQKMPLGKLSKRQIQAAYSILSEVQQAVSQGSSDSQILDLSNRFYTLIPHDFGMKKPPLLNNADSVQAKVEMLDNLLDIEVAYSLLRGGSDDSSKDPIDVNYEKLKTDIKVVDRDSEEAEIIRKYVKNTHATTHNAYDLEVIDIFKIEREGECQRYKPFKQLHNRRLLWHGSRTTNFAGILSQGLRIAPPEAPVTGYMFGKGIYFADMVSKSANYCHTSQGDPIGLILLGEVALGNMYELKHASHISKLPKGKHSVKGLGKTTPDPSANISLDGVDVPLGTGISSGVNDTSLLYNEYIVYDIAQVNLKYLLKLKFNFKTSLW

Compound	IC50 [nM]
CC(C)Cc1cc2[nH]c(=O)c3ccccc3n2n1	400
O=c1[nH]c2cc(-c3ccc(OC(F)(F)F)cc3)nn2c2ccccc12	> 1000
CN1CCCN(C(=O)c2cnn3c2[nH]c(=O)c2ccccc23)CC1	> 1000
O=C(c1cccc(-c2cc3[nH]c(=O)c4ccccc4n3n2)c1)N1CCN2CCC[C@H]2C1	500
O=c1[nH]c2cc(C3CCCCC3)nn2c2ccccc12	200
Cc1ccc(-c2cc3[nH]c(=O)c4ccccc4n3n2)cc1	500
CN1CCC(CNC(=O)c2cc3[nH]c(=O)c4ccccc4n3n2)C1 (stereo not given)	80
N#Cc1ccc(-c2cc3[nH]c(=O)c4ccccc4n3n2)cc1	> 1000
CN(C)CCN(C)C(=O)c1cc2[nH]c(=O)c3ccccc3n2n1	100
O=c1[nH]c2cc(-c3cccc(Cl)c3)nn2c2ccccc12	500
O=c1[nH]c2cc(-c3cccc(Br)c3)nn2c2ccccc12	600
O=C(NCCCN1CCOCC1)c1cc2[nH]c(=O)c3ccccc3n2n1	140
O=c1[nH]c2cc(-c3cccs3)nn2c2ccccc12	150
O=c1[nH]c2cc(-c3ccco3)nn2c2ccccc12	200
Cc1cc2[nH]c(=O)c3ccccc3n2n1	300
CN1CCCN(C(=O)c2cc3[nH]c(=O)c4ccccc4n3n2)CC1	10
COc1cccc(-c2cc3[nH]c(=O)c4ccccc4n3n2)c1OC	100
CN(C)CCN(C)C(=O)c1cccc(-c2cc3[nH]c(=O)c4ccccc4n3n2)c1	800
CN1CCN(C(=O)c2cnn3c2[nH]c(=O)c2ccccc23)CC1	> 1000
CN1CCN(C(=O)c2ccc(-c3cc4[nH]c(=O)c5ccccc5n4n3)cc2)CC1	1400
CCc1ccc(-c2cc3[nH]c(=O)c4ccccc4n3n2)cc1	500
O=c1[nH]c2cc(-c3ccc(Br)cc3)nn2c2ccccc12	700

Compound	IC50 [nM]
CN(C)CCN(C)C(=O)c1ccc(-c2cc3[nH]c(=O)c4ccccc4n3n2)cc1	1300
O=C(c1cc2[nH]c(=O)c3ccccc3n2n1)N1CCCNCC1	30
O=C(c1cc2[nH]c(=O)c3ccccc3n2n1)N1CCC(CN2CCOCC2)CC1	1100
O=C(NCCC1(N2CCOCC2)CCCC1)c1cc2[nH]c(=O)c3ccccc3n2n1	90
O=C(c1cnn2c1[nH]c(=O)c1ccccc12)N1CCCNCC1	> 1000
CN1CCN(C(=O)c2cc3[nH]c(=O)c4ccccc4n3n2)CC1	300
COc1ccc(-c2cc3[nH]c(=O)c4ccccc4n3n2)c(OC)c1	200
CN1CCN(C(=O)c2cccc(-c3cc4[nH]c(=O)c5ccccc5n4n3)c2)CC1	1000
CN1CCC(CNC(=O)c2cc3[nH]c(=O)c4ccccc4n3n2)CC1	70
O=c1[nH]c2cc(-c3ccc(F)cc3)nn2c2ccccc12	> 1000
O=C(NCCN1CCOCC1)c1cnn2c1[nH]c(=O)c1ccccc12	> 1000
COc1cc(-c2cc3[nH]c(=O)c4ccccc4n3n2)cc(OC)c1OC	30
O=C(c1cc2[nH]c(=O)c3ccccc3n2n1)N1CCN(CC2CC2)CC1	300
CCCc1ccc(-c2cc3[nH]c(=O)c4ccccc4n3n2)cc1	> 1000
O=C(c1ccc(-c2cc3[nH]c(=O)c4ccccc4n3n2)cc1)N1CCN2CCC[C@H]2C1	2500
O=C(c1cc2[nH]c(=O)c3ccccc3n2n1)N1CCN2CCC[C@H]2C1	600
COc1ccc(-c2cc3[nH]c(=O)c4ccccc4n3n2)cc1OC	200
O=C(NCCN1CCOCC1)c1cc2[nH]c(=O)c3ccccc3n2n1	140
O=c1[nH]c2cc(-c3ccc(Cl)cc3)nn2c2ccccc12	500
O=c1[nH]c2cc(-c3cccc(F)c3)nn2c2ccccc12	> 1000
CC(C)(C)c1ccc(-c2cc3[nH]c(=O)c4ccccc4n3n2)cc1	> 1000
O=c1[nH]c2cc(-c3ccccc3)nn2c2ccccc12	100
